Assays:
[1] = tested on: U-87MG ATCC; experiment: (§1) Cytotoxicity against human U87MG cells assessed as reduction in cell viability after 48 hrs by Z2 coulter counter method; format: functional, cell-based; conditions: TDE = time-dependent effect
[2] = as §1; format: functional, cell-based, U-87MG ATCC; conditions: U-87 MG
[3] = tested on: U-87MG ATCC; experiment: (§2) Cytotoxicity against human U87MG cells assessed as reduction in cell viability after 72 hrs by Z2 coulter counter method; format: functional, cell-based; conditions: TDE = time-dependent effect
[4] = as §2; format: functional, cell-based, U-87MG ATCC; conditions: U-87 MG
[5] = tested on: U-87MG ATCC; experiment: (§3) Cytotoxicity against human U87MG cells assessed as reduction in cell viability after 24 hrs by Z2 coulter counter method; format: functional, cell-based; conditions: TDE = time-dependent effect
[6] = as §3; format: functional, cell-based, U-87MG ATCC; conditions: U-87 MG
[7] = tested on: U-87MG ATCC; experiment: Cytotoxicity against human U87MG cells assessed as reduction in cell viability by Z2 coulter counter method; format: functional, cell-based; conditions: TDE = time-dependent effect
[8] = tested on: HeLa; experiment: Cytotoxicity against human HeLa cells assessed as reduction in cell viability after 72 hrs by Z2 coulter counter method; format: functional, cell-based
[9] = tested on: MDA-MB-231; experiment: Cytotoxicity against human MDA-MB-231 cells assessed as reduction in cell viability after 72 hrs by Z2 coulter counter method; format: functional, cell-based; conditions: MDA-MB-231, 72 h
[10] = tested on: HeLa; experiment: Cytotoxicity against human HeLa cells assessed as reduction in cell viability after 48 hrs by Z2 coulter counter method; format: functional, cell-based
[11] = tested on: MCF7; experiment: Cytotoxicity against human MCF7 cells assessed as reduction in cell viability after 24 hrs by Z2 coulter counter method; format: functional, cell-based; conditions: MCF7, 24 h
[12] = tested on: MDA-MB-231; experiment: Cytotoxicity against human MDA-MB-231 cells assessed as reduction in cell viability after 24 hrs by Z2 coulter counter method; format: functional, cell-based; conditions: MDA-MB-231, 24 h
[13] = Cytotoxicity against human HN13 cells assessed as reduction in cell viability after 72 hrs by Z2 coulter counter method; format: functional, cell-based; conditions: WSU-HN13, 72 h
[14] = tested on: MCF7; experiment: Cytotoxicity against human MCF7 cells assessed as reduction in cell viability after 72 hrs by Z2 coulter counter method; format: functional, cell-based; conditions: MCF7, 72 h
[15] = Cytotoxicity against human HN13 cells assessed as reduction in cell viability after 48 hrs by Z2 coulter counter method; format: functional, cell-based; conditions: WSU-HN13, 48 h
[16] = tested on: HeLa; experiment: Cytotoxicity against human HeLa cells assessed as reduction in cell viability after 24 hrs by Z2 coulter counter method; format: functional, cell-based
[17] = tested on: MDA-MB-231; experiment: Cytotoxicity against human MDA-MB-231 cells assessed as reduction in cell viability after 48 hrs by Z2 coulter counter method; format: functional, cell-based; conditions: MDA-MB-231, 48 h
[18] = Cytotoxicity against human HN13 cells assessed as reduction in cell viability after 24 hrs by Z2 coulter counter method; format: functional, cell-based; conditions: WSU-HN13, 24 h
[19] = tested on: MCF7; experiment: Cytotoxicity against human MCF7 cells assessed as reduction in cell viability after 48 hrs by Z2 coulter counter method; format: functional, cell-based; conditions: MCF7, 48 h

Cn1c(=O)n(-c2ccc(C(C)(C)C#N)cc2)c2c3cc(-c4cnc5ccccc5c4)ccc3ncc21 [DACTOLISIB]
Activity [1]: tde | IC50 [2]: 0.6 µM | Activity [3]: tde | IC50 [4]: 0.16 µM | Activity [5]: tde | IC50 [6]: 825 µM | Activity [7]: tde

O=C(Nc1ccc(Nc2ccc(OC3CCNCC3)cc2)cc1)c1cccc(-n2nc(C(=O)Nc3ccc(Nc4ccc(OC5CCNCC5)cc4)cc3)c3c2C(=O)NCC3)c1
IC50 [2]: 44.4 µM | IC50 [8]: 16 µM | IC50 [9]: 28.9 µM | IC50 [10]: 17.6 µM | IC50 [11]: 78.3 µM | IC50 [12]: 55 µM | IC50 [13]: 26.1 µM | IC50 [4]: 33.5 µM | IC50 [6]: 60 µM | IC50 [14]: 10.6 µM | IC50 [15]: 27 µM | IC50 [16]: 17.6 µM | IC50 [17]: 42.6 µM | IC50 [18]: 30.6 µM | IC50 [19]: 32.9 µM

O=c1[nH]cc(F)c(=O)[nH]1 [FLUOROURACIL]
Activity [1]: tde | IC50 [2]: 220 µM | Activity [3]: tde | IC50 [4]: 18.2 µM | Activity [5]: tde | Activity [7]: tde

Reference: ChEMBL document CHEMBL3804773, “Straightforward synthesis of a novel ring-fused pyrazole-lactam and in vitro cytotoxic activity on cancer cell lines” (Eur J Med Chem, 2016)
